According to ChEMBL document CHEMBL5625248, “Identification of unique indolylcyanoethylenyl sulfonylanilines as novel structural scaffolds of potential antibacterial agents” (Eur J Med Chem, 2023):
≈ marks a conversion by molar mass, not a printed value.

What was measured:
Type in all cases: functional
Pseudomonas aeruginosa [1] = assay: Antibacterial activity against Pseudomonas aeruginosa ATCC 27853 assessed as inhibition of bacterial growth incubated for 18 hrs by two fold broth microdilution assay
Staphylococcus aureus [2] = assay: Antibacterial activity against methicilin-resistant Staphylococcus aureus N315 assessed as inhibition of bacterial growth incubated for 18 hrs by two fold broth microdilution assay
Staphylococcus aureus [3] = assay: Antibacterial activity against Staphylococcus aureus ATCC 25923 assessed as inhibition of bacterial growth incubated for 18 hrs by two fold broth microdilution assay
Staphylococcus aureus [4] = assay: Antibacterial activity against Staphylococcus aureus ATCC 29213 assessed as inhibition of bacterial growth incubated for 18 hrs by two fold broth microdilution assay
Klebsiella pneumoniae = assay: Antibacterial activity against Klebsiella pneumoniae assessed as inhibition of bacterial growth incubated for 18 hrs by two fold broth microdilution assay
Acinetobacter baumannii = assay: Antibacterial activity against Acinetobacter baumannii assessed as inhibition of bacterial growth incubated for 18 hrs by two fold broth microdilution assay
Escherichia coli [5] = assay: Antibacterial activity against Escherichia coli assessed as inhibition of bacterial growth incubated for 18 hrs by two fold broth microdilution assay
Enterococcus faecalis = assay: Antibacterial activity against Enterococcus faecalis assessed as inhibition of bacterial growth incubated for 18 hrs by two fold broth microdilution assay
Escherichia coli [6] = assay: Antibacterial activity against Escherichia coli ATCC 25922 assessed as inhibition of bacterial growth incubated for 18 hrs by two fold broth microdilution assay
Pseudomonas aeruginosa [7] = assay: Antibacterial activity against Pseudomonas aeruginosa assessed as inhibition of bacterial growth incubated for 18 hrs by two fold broth microdilution assay
Staphylococcus aureus [8] = assay: Antibacterial activity against Staphylococcus aureus assessed as inhibition of bacterial growth incubated for 18 hrs by two fold broth microdilution assay

Structure (SMILES) | MIC (Pseudomonas aeruginosa [1]) [mg/L] | MIC (Staphylococcus aureus [2]) [mg/L] | MIC (Staphylococcus aureus [3]) [mg/L] | MIC (Staphylococcus aureus [4]) [mg/L] | MIC (Klebsiella pneumoniae) [mg/L] | MIC (Acinetobacter baumannii) [mg/L] | MIC (Escherichia coli [5]) [mg/L] | MIC (Enterococcus faecalis) [mg/L] | MIC (Escherichia coli [6]) [mg/L] | MIC (Pseudomonas aeruginosa [7]) [mg/L] | MIC (Staphylococcus aureus [8]) [mg/L]
C#CCn1cc(/C=C(\C#N)S(=O)(=O)c2ccc(NC(C)=O)cc2)c2ccccc21 | 2 (≈ 4.96 µM) | 2 (≈ 4.96 µM) | 4 (≈ 9.91 µM) | 8 (≈ 19.8 µM) | 4 (≈ 9.91 µM) | 8 (≈ 19.8 µM) | 8 (≈ 19.8 µM) | 4 (≈ 9.91 µM) | 2 (≈ 4.96 µM) | 4 (≈ 9.91 µM) | 2 (≈ 4.96 µM)
N#C/C(=C\c1cn(Cc2cccc(F)c2)c2ccccc12)S(=O)(=O)c1ccc(N)cc1 | 64 (≈ 148 µM) | 256 (≈ 593 µM) | 64 (≈ 148 µM) | 64 (≈ 148 µM) | 4 (≈ 9.27 µM) | 8 (≈ 18.5 µM) | 256 (≈ 593 µM) | 128 (≈ 297 µM) | 64 (≈ 148 µM) | 64 (≈ 148 µM) | 128 (≈ 297 µM)
CC(=O)Nc1ccc(S(=O)(=O)/C(C#N)=C/c2cn(CC(=O)N(C(C)C)C(C)C)c3ccccc23)cc1 | 64 (≈ 126 µM) | 64 (≈ 126 µM) | 32 (≈ 63.2 µM) | 64 (≈ 126 µM) | 32 (≈ 63.2 µM) | 32 (≈ 63.2 µM) | 64 (≈ 126 µM) | 64 (≈ 126 µM) | 64 (≈ 126 µM) | 64 (≈ 126 µM) | 32 (≈ 63.2 µM)
N#C/C(=C\c1c[nH]c2cc(F)ccc12)S(=O)(=O)c1ccc(N)cc1 | 8 (≈ 23.4 µM) | 16 (≈ 46.9 µM) | 4 (≈ 11.7 µM) | 128 (≈ 375 µM) | 64 (≈ 187 µM) | 8 (≈ 23.4 µM) | 256 (≈ 750 µM) | 8 (≈ 23.4 µM) | 8 (≈ 23.4 µM) | 4 (≈ 11.7 µM) | 4 (≈ 11.7 µM)
CC(=O)Nc1ccc(S(=O)(=O)/C(C#N)=C/c2cn(Cc3ccccc3Cl)c3ccccc23)cc1 | 4 (≈ 8.16 µM) | 16 (≈ 32.7 µM) | 4 (≈ 8.16 µM) | 8 (≈ 16.3 µM) | 2 (≈ 4.08 µM) | 8 (≈ 16.3 µM) | 2 (≈ 4.08 µM) | 4 (≈ 8.16 µM) | 1 (≈ 2.04 µM) | 2 (≈ 4.08 µM) | 2 (≈ 4.08 µM)
CC(C)=CCn1cc(/C=C(\C#N)S(=O)(=O)c2ccc(N)cc2)c2ccccc21 | 8 (≈ 20.4 µM) | 32 (≈ 81.7 µM) | 16 (≈ 40.9 µM) | 128 (≈ 327 µM) | 8 (≈ 20.4 µM) | 0.5 (≈ 1.28 µM) | 8 (≈ 20.4 µM) | 128 (≈ 327 µM) | 8 (≈ 20.4 µM) | 2 (≈ 5.11 µM) | 64 (≈ 163 µM)
C=CCn1cc(/C=C(\C#N)S(=O)(=O)c2ccc(NC(C)=O)cc2)c2ccccc21 | 16 (≈ 39.5 µM) | 8 (≈ 19.7 µM) | 4 (≈ 9.86 µM) | 256 (≈ 631 µM) | 8 (≈ 19.7 µM) | 2 (≈ 4.93 µM) | 8 (≈ 19.7 µM) | 8 (≈ 19.7 µM) | 1 (≈ 2.47 µM) | 8 (≈ 19.7 µM) | 256 (≈ 631 µM)
N#C/C(=C\c1cn(CC2CCCC2)c2ccccc12)S(=O)(=O)c1ccc(N)cc1 | 64 (≈ 158 µM) | 256 (≈ 631 µM) | 256 (≈ 631 µM) | 16 (≈ 39.5 µM) | 4 (≈ 9.86 µM) | 32 (≈ 78.9 µM) | 256 (≈ 631 µM) | 32 (≈ 78.9 µM) | 8 (≈ 19.7 µM) | 64 (≈ 158 µM) | 256 (≈ 631 µM)
CCn1cc(/C=C(\C#N)S(=O)(=O)c2ccc(NC(C)=O)cc2)c2ccccc21 | 8 (≈ 20.3 µM) | 64 (≈ 163 µM) | 4 (≈ 10.2 µM) | 4 (≈ 10.2 µM) | 32 (≈ 81.3 µM) | 64 (≈ 163 µM) | 128 (≈ 325 µM) | 16 (≈ 40.7 µM) | 128 (≈ 325 µM) | 64 (≈ 163 µM) | 128 (≈ 325 µM)
CC(=O)Nc1ccc(S(=O)(=O)/C(C#N)=C/c2cn(CC(=O)N3CCCCC3)c3ccccc23)cc1 | 256 (≈ 522 µM) | 128 (≈ 261 µM) | 2 (≈ 4.08 µM) | 128 (≈ 261 µM) | 64 (≈ 130 µM) | 64 (≈ 130 µM) | 128 (≈ 261 µM) | 128 (≈ 261 µM) | 256 (≈ 522 µM) | 8 (≈ 16.3 µM) | 256 (≈ 522 µM)
CC(=O)Nc1ccc(S(=O)(=O)/C(C#N)=C/c2cn(Cc3cccc(Cl)c3)c3ccccc23)cc1 | 64 (≈ 131 µM) | 128 (≈ 261 µM) | 128 (≈ 261 µM) | 8 (≈ 16.3 µM) | 16 (≈ 32.7 µM) | 64 (≈ 131 µM) | 128 (≈ 261 µM) | 256 (≈ 522 µM) | 4 (≈ 8.16 µM) | 64 (≈ 131 µM) | 64 (≈ 131 µM)
CC(=O)Nc1ccc(S(=O)(=O)/C(C#N)=C/c2cn(C)c3ccccc23)cc1 | 64 (≈ 169 µM) | 16 (≈ 42.2 µM) | 8 (≈ 21.1 µM) | 128 (≈ 337 µM) | 128 (≈ 337 µM) | 0.5 (≈ 1.32 µM) | 16 (≈ 42.2 µM) | 128 (≈ 337 µM) | 0.5 (≈ 1.32 µM) | 32 (≈ 84.3 µM) | 128 (≈ 337 µM)
N#C/C(=C\c1cn(Cc2ccc([N+](=O)[O-])cc2)c2ccccc12)S(=O)(=O)c1ccc(N)cc1 | 128 (≈ 279 µM) | 128 (≈ 279 µM) | 256 (≈ 558 µM) | 128 (≈ 279 µM) | 64 (≈ 140 µM) | 64 (≈ 140 µM) | 128 (≈ 279 µM) | 128 (≈ 279 µM) | 128 (≈ 279 µM) | 64 (≈ 140 µM) | 256 (≈ 558 µM)
CC(=O)Nc1ccc(S(=O)(=O)/C(C#N)=C/c2c[nH]c3cccc(Cl)c23)cc1 | 32 (≈ 80 µM) | 64 (≈ 160 µM) | 128 (≈ 320 µM) | 32 (≈ 80 µM) | 4 (≈ 10 µM) | 16 (≈ 40 µM) | 128 (≈ 320 µM) | 32 (≈ 80 µM) | 16 (≈ 40 µM) | 64 (≈ 160 µM) | 32 (≈ 80 µM)
CC(=O)Nc1ccc(S(=O)(=O)/C(C#N)=C/c2cn(C(=O)OC(C)(C)C)c3ccccc23)cc1 | 128 (≈ 275 µM) | 32 (≈ 68.7 µM) | 128 (≈ 275 µM) | 2 (≈ 4.3 µM) | 128 (≈ 275 µM) | 64 (≈ 137 µM) | 128 (≈ 275 µM) | 128 (≈ 275 µM) | 128 (≈ 275 µM) | 128 (≈ 275 µM) | 128 (≈ 275 µM)
CC(=O)Nc1ccc(S(=O)(=O)/C(C#N)=C/c2cn(CCO)c3ccccc23)cc1 | 8 (≈ 19.5 µM) | 32 (≈ 78.2 µM) | 2 (≈ 4.88 µM) | 2 (≈ 4.88 µM) | 2 (≈ 4.88 µM) | 32 (≈ 78.2 µM) | 4 (≈ 9.77 µM) | 4 (≈ 9.77 µM) | 1 (≈ 2.44 µM) | 4 (≈ 9.77 µM) | 2 (≈ 4.88 µM)
CC(=O)Nc1ccc(S(=O)(=O)/C(C#N)=C/c2cn(CCN3CCOCC3)c3ccccc23)cc1 | 8 (≈ 16.7 µM) | 32 (≈ 66.9 µM) | 32 (≈ 66.9 µM) | 32 (≈ 66.9 µM) | 256 (≈ 535 µM) | 32 (≈ 66.9 µM) | 64 (≈ 134 µM) | 256 (≈ 535 µM) | 0.5 (≈ 1.04 µM) | 4 (≈ 8.36 µM) | 128 (≈ 267 µM)
CC(=O)Nc1ccc(S(=O)(=O)/C(C#N)=C/c2cn(CCN(C)C)c3ccccc23)cc1 | 16 (≈ 36.7 µM) | 128 (≈ 293 µM) | 16 (≈ 36.7 µM) | 2 (≈ 4.58 µM) | 8 (≈ 18.3 µM) | 32 (≈ 73.3 µM) | 128 (≈ 293 µM) | 256 (≈ 586 µM) | 64 (≈ 147 µM) | 64 (≈ 147 µM) | 128 (≈ 293 µM)
N#C/C(=C\c1cn(Cc2cccc(Cl)c2)c2ccccc12)S(=O)(=O)c1ccc(N)cc1 | 64 (≈ 143 µM) | 128 (≈ 286 µM) | 64 (≈ 143 µM) | 32 (≈ 71.4 µM) | 256 (≈ 571 µM) | 32 (≈ 71.4 µM) | 256 (≈ 571 µM) | 128 (≈ 286 µM) | 32 (≈ 71.4 µM) | 64 (≈ 143 µM) | 128 (≈ 286 µM)
CC(=O)Nc1ccc(S(=O)(=O)/C(C#N)=C/c2cn(CC(=O)N3CCOCC3)c3ccccc23)cc1 | 256 (≈ 520 µM) | 16 (≈ 32.5 µM) | 64 (≈ 130 µM) | 2 (≈ 4.06 µM) | 128 (≈ 260 µM) | 128 (≈ 260 µM) | 256 (≈ 520 µM) | 64 (≈ 130 µM) | 128 (≈ 260 µM) | 64 (≈ 130 µM) | 256 (≈ 520 µM)
